Columns and labels:
[1] = target: T1, MKK4 (Homo sapiens, UniProt P45985); conditions: 1 μM; Run 1, Run 2
T1 sequence (P45985 1-399): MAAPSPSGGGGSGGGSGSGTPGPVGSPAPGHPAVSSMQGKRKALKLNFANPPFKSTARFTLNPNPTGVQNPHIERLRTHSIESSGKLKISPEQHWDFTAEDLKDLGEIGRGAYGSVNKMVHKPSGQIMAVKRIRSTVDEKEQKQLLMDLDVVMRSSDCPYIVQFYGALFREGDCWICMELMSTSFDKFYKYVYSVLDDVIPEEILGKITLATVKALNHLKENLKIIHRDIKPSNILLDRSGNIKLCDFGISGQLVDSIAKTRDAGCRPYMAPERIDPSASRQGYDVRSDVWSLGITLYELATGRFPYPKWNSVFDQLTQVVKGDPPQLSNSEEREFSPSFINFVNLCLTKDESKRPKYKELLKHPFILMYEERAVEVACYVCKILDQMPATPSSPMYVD

[2] = target: T2, EPHB2 (Homo sapiens, UniProt P29323); conditions: 1 μM; Run 1, Run 2
T2 sequence (P29323 19-1055): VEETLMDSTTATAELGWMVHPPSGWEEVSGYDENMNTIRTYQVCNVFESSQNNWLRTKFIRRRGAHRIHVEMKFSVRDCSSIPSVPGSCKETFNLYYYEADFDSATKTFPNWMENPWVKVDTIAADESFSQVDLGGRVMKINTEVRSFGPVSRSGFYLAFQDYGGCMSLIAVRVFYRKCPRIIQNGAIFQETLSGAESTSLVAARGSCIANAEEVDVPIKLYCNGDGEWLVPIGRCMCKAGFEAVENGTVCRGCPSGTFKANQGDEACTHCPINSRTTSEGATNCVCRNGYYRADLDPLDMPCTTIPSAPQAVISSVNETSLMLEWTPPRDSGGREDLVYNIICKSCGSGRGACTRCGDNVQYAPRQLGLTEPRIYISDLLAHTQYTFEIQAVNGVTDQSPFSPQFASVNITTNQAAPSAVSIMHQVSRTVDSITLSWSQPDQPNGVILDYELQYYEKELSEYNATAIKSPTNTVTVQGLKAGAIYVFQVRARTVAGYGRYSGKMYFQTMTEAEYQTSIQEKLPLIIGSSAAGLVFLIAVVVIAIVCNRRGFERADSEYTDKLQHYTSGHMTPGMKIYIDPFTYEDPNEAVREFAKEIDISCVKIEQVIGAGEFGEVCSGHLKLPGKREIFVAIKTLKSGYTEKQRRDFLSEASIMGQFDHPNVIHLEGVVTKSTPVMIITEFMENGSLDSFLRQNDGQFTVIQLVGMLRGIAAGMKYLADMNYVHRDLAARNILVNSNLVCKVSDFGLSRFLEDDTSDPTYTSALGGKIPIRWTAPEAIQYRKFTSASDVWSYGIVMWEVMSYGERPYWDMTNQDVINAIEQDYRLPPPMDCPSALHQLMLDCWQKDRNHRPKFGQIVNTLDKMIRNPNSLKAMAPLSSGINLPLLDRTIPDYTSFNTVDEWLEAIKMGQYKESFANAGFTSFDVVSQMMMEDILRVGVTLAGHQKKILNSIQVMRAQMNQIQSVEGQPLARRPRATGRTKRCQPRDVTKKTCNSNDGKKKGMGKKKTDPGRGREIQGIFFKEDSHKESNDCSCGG

[3] = target: SRPK2 (Homo sapiens, UniProt P78362); conditions: 1 μM; Run 1, Run 2
[4] = target: T3, TYRO3/SKY (Homo sapiens, UniProt Q06418); assay: biochemical; conditions: read-out: % enzyme activity, 1 μM; Run 1, Run 2
T3 sequence (Q06418 41-890): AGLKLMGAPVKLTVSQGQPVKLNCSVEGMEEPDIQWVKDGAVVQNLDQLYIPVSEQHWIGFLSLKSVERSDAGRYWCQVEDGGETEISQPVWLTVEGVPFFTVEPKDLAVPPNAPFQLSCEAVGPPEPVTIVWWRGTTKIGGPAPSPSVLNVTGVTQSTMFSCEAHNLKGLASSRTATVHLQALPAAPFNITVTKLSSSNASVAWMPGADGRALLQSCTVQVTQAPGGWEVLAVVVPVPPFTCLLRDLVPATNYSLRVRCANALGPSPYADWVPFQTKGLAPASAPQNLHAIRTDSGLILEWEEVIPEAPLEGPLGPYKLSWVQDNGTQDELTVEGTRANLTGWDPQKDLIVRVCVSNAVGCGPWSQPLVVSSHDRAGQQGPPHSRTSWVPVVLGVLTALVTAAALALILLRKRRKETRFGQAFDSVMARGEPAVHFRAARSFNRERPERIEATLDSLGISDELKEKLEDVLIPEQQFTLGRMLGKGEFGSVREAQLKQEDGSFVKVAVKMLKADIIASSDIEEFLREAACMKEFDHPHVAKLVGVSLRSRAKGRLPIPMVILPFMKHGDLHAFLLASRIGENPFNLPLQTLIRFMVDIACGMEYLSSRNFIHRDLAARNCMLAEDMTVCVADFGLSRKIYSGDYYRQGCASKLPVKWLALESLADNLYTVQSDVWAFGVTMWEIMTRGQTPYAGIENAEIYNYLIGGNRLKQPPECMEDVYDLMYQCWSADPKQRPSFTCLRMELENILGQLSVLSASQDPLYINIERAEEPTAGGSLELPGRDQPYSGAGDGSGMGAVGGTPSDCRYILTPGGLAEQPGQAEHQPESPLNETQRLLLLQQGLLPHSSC

[5] = target: T4, SIK2 (Homo sapiens, UniProt Q9H0K1); assay: 375-member kinase panel; assay type: biochemical; conditions: Run 1, Run 2; for % enzyme activity: 1 μM; for remaining activity at 1 µM: read-out: % enzyme activity, 1 μM
T4 construct: purchased Reaction Biology Corporation
T4 sequence (Q9H0K1 whole entry): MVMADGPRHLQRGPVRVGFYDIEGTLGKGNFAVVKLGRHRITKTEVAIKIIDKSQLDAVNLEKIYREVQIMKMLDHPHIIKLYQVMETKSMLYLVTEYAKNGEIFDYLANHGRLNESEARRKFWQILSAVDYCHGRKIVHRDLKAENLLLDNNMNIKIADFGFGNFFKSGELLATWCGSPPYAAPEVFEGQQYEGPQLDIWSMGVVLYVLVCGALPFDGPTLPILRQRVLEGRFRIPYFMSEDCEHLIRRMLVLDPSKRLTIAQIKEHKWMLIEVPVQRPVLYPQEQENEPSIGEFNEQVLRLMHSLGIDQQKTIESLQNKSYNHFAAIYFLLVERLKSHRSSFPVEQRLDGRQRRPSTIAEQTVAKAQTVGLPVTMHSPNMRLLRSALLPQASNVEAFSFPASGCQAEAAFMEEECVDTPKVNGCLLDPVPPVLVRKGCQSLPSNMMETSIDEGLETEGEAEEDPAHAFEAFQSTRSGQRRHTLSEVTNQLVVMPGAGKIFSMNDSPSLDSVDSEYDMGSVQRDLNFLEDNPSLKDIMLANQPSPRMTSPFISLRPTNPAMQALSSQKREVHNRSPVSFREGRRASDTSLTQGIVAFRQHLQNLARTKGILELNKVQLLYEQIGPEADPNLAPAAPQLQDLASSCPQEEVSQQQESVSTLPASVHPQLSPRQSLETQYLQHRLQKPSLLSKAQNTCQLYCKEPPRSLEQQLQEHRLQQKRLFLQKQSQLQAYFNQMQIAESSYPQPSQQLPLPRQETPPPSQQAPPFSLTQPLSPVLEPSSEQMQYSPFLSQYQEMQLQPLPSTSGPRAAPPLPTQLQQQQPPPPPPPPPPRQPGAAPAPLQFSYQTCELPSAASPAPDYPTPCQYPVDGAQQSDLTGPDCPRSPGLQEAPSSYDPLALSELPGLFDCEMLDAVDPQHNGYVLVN

SRPK2, sequence (P78362 whole entry): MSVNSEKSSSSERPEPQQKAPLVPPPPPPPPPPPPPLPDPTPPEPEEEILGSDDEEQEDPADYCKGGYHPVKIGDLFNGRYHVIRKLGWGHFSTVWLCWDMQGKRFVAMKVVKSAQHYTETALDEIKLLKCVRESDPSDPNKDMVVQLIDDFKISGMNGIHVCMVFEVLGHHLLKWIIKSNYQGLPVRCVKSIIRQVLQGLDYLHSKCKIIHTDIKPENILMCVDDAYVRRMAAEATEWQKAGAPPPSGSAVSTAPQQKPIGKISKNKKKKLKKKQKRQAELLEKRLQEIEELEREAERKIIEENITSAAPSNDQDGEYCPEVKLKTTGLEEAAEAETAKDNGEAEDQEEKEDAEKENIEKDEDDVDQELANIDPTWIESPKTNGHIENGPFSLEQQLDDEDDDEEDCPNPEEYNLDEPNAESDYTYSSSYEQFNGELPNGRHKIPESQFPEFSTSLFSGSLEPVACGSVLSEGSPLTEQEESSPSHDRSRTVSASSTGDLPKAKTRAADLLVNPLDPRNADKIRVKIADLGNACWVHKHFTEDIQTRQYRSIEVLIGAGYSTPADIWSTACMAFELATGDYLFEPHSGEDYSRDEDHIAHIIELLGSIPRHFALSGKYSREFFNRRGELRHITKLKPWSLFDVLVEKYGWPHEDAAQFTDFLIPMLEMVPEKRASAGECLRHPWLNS

| Compound | % enzyme activity [1] [%] | % enzyme activity [2] [%] | % enzyme activity [3] [%] | remaining activity at 1 µM [4] [%] | % enzyme activity [5] [%] | remaining activity at 1 µM [5] [%] |
| --- | --- | --- | --- | --- | --- | --- |
| COc1cc(-c2cncc(-c3ccc(N4CCN(C)CC4)cc3)c2C)cc(F)c1C(N)=O [Compound 26a, 2-Fluoro-6-methoxy-4-(4-methyl-5-(4-(4-methylpiperazin-1-yl)phenyl)pyridin-3-yl)benzamide] | 98.66 | 92.89 | 94.13 | 84.1 | 30.68 | 32 |
| COc1cc(-c2cncc(-c3ccc(N4C[C@@H](C)N(C)[C@@H](C)C4)cc3)c2C)cc(F)c1C(N)=O [Compound 26c, 2-Fluoro-6-methoxy-4-(4-methyl-5-(4-((3R,5S)-3,4,5-trimethylpiperazin-1-yl)phenyl)pyridin-3-yl)benzamide] | 93.94 | 97.40 | 115.95 | 94.5 | 43.50 | 43.9 |
